Assay results reported in PMC9636434, “Discovery of small molecule agonists of the Relaxin Family Peptide Receptor 2” (Communications Biology, 2022).
Several values for one entry are separate records, joined by “and”; a condition that tells them apart may be missing. Equal values may be shown once.

What was measured:
[1] = target: T1, human PTHR1 (Homo sapiens, UniProt Q03431); assay: HitHunter cAMP XS+ assay, cAMP Hunter cell line PTHR1; assay type: cell-based; conditions: for RLU: replicates (1),(2)
T1 sequence (Q03431 27-593): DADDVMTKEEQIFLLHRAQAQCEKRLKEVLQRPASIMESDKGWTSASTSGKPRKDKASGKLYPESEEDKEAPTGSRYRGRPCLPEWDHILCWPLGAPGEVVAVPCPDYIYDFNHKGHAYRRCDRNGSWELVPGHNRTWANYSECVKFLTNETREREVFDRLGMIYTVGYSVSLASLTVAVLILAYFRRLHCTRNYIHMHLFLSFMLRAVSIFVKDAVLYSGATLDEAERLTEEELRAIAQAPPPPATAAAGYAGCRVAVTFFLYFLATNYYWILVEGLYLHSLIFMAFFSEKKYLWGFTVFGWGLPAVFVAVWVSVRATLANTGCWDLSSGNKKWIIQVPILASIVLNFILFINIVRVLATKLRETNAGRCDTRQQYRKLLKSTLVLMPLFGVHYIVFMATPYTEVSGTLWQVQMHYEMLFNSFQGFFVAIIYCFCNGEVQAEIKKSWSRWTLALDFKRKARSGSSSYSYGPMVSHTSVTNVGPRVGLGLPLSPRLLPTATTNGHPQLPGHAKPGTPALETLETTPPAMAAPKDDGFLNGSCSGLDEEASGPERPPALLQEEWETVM
Text: Results are reported as raw RLU values and represent the
mean ± SEM of 2 technical replicates.

[2] = target: CCKAR (Homo sapiens, UniProt P32238); assay: PRESTO-Tango β-arrestin recruitment, CCKAR; assay type: cell-based; conditions: 10 µM compound; basal level of detection 3-fold RLU
[3] = target: T2, human RXFP1 (Homo sapiens, UniProt Q9HBX9); assay: HTRF cAMP counter-screen in HEK293T cells expressing human RXFP1; assay type: cell-based; conditions: for % Eff (cAMP): human RXFP1, experiments (1)-(3)
T2 construct: FLAG (N); expressed in transfected cells
T2 sequence (Q9HBX9 1-757): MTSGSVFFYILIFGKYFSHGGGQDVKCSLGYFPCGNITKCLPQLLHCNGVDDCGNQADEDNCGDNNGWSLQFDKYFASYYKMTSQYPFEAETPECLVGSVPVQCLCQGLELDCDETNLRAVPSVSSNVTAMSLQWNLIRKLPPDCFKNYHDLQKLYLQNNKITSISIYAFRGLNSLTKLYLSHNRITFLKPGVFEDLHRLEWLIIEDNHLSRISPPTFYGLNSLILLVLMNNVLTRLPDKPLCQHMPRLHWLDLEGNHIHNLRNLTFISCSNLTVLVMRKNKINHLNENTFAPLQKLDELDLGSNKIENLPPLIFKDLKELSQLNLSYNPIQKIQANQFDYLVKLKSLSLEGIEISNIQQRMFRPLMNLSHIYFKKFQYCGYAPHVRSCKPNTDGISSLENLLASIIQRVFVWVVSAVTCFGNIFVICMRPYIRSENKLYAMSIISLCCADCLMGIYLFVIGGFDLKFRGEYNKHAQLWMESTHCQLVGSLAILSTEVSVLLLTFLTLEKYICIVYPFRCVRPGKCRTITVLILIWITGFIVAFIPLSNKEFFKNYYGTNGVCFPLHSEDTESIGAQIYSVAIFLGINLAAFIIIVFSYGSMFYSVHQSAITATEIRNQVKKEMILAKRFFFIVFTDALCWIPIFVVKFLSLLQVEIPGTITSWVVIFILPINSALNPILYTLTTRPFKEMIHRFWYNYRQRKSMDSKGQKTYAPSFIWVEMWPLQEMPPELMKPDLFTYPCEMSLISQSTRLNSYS
Method: The HTRF Gs dynamic cAMP assay kit (CisBio, Bedford, MA) was used to measure intracellular cAMP accumulation in HEK293T cells (ATCC, Manassas, VA)[56]. […] The cell stock was verified mycoplasma free and authenticated by ATCC. Transient transfection was accomplished by treating cells in a 6-well plate with a mixture of 2 μg plasmid and 6 μL Lipofectamine 2000 (Invitrogen, Waltham, MA) per manufacturer’s protocol and incubating overnight. For cAMP measurement in 96-well format, HEK293T cells stably transfected with human RXFP2 (HEK-RXFP2), human RXFP1 (HEK-RXFP1), mouse Rxfp1 (HEK-Rxfp1) or transiently transfected with human RXFP1-RXFP2 chimeric receptors were seeded between 7500 and 30,000 cells per well, depending on cell line responsiveness, in serum-free DMEM medium and incubated overnight at 37 °C, 5% CO2. After 18 h, cells were treated with a titration of compound, 2 μM forskolin, or DMSO vehicle. Control wells were also treated with a titration of INSL3 (Phoenix Pharmaceuticals, Burlingame, CA) or human recombinant relaxin 2 (Peprotech, Cranbury, NJ). For the RXFP2 antagonist experiment, cells were co-treated with 0.28 μM compound or 30 nM INSL3 and a titration of the INSL3 B dimer antagonist[38],[39]. For the INSL3 allosteric modulation experiment, cells were co-treated with 0.025, 0.0025, or 0.00025 μM of compound and a titration of INSL3. Cells were incubated for 1 h at 37 °C, 5% CO2, and then kit cAMP-d2 and anti-cAMP antibody were added per manufacturer protocol. Plates were incubated for 1 h at room temperature and the signal was read on a CLARIOstar plate reader (BMG Labtech, Ortenberg, Germany) at 665 and 620 nm emission wavelengths. […]
receptors. HTRF cAMP counter-screen of RXFP2 agonists in HEK293T cells expressing a human RXFP1 and b mouse RXFP1. Relaxin 2 was used as positive control for RXFP1 receptor activation. Results are expressed as mean ± SEM of 3

[4] = system: osteoblast markers Alp, Col1a1, Osteocalcin, Runx2; assay: Quantitative RT-PCR of osteoblast markers in tibia after 8-week oral treatment; assay type: in vivo, mouse; conditions: normalized to control group, 10 mg/kg PO, 8 weeks, individual mice

CCKAR, sequence (P32238 whole entry): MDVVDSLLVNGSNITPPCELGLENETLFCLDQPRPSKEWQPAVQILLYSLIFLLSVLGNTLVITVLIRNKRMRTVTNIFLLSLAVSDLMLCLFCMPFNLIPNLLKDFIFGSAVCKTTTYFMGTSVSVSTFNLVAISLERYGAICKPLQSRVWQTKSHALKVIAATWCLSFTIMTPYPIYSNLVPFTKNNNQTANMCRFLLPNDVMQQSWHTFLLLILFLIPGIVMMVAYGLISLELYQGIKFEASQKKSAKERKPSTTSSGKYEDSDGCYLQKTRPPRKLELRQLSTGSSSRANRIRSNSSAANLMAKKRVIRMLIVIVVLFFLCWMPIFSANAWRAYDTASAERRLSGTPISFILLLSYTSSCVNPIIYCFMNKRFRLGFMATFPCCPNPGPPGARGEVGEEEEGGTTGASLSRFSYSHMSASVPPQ

## O=C1Nc2ccc(-c3cc(C(F)(F)F)cc(C(F)(F)F)c3)cc2C(=O)N2CCN(C(=O)COc3ccc(OC(F)(F)F)cc3I)C[C@@H]12 [compound 6641]
[1]; Hit Hunter cAMP assay
  cAMP response through PTHR1: does not activate
[1]; Log [M] -4.70
  RLU: 1080 RLU
[1]; Log [M] -5.18
  RLU: 1000 RLU
[1]; Log [M] -5.65
  RLU: 960 RLU
[1]; Log [M] -6.13
  RLU: 1040 RLU
[1]; Log [M] -6.61
  RLU: 920 RLU and 960 RLU
[1]; Log [M] -7.08
  RLU: 1200 RLU and 1040 RLU
[1]; Log [M] -7.56
  RLU: 1000 RLU and 880 RLU
[1]; Log [M] -8.04
  RLU: 1000 RLU and 920 RLU
[1]; Log [M] -8.52
  RLU: 920 RLU and 1000 RLU
[1]; Log [M] -8.99
  RLU: 800 RLU
[2]
  β-arrestin recruitment, CCKAR (mean ± SEM): 3.42 ± 0.15 fold RLU
[3]; HTRF cAMP
  activation of human RXFP1 receptor: do not activate
[3]; Log [M] -4.60
  % Eff (cAMP): -1.3757% and -1.734% and -1.01%
[3]; Log [M] -5.60
  % Eff (cAMP): -1.852% and -1.326% and -2.683%
[3]; Log [M] -6.60
  % Eff (cAMP): -1.88% and -0.1839% and -0.6843%
[3]; Log [M] -7.60
  % Eff (cAMP): -1.108% and 0.09011% and -0.3682%
[4]
  Alp gene expression: No significant differences and 0.88 and 1.46 and 1.09 and 1.63 and 1.11 and 1.2 and 1.13 and 0.7 and 1.17 and 0.71 and 0.82 and 1.61 and 1.28 and 1.02
  Col1a1 gene expression: No significant differences and 1.04 and 1.44 and 0.9 and 1.62 and 0.96 and 1.32 and 0.82 and 1.12 and 1.24 and 0.81 and 0.88 and 1.29 and 0.93
  Osteocalcin gene expression: significant increase and 1.47 and 0.79 and 1.35 and 1.31 and 2.35 and 1.34 and 2.19 and 1.5 and 2.42 and 1.3 and 1.4 and 1.23 and 2.1 and 1.83 and 1.39
  Runx2 gene expression: decrease and 0.41 and 0.71 and 0.95 and 0.75 and 1.16 and 0.6 and 0.57 and 0.72 and 0.73 and 0.89 and 0.83 and 1.42 and 1.07 and 0.66
